Three substances from patent US20090317457A1, “ANTI-INFLAMMATORY AND WOUND HEALING EFFECTS OF LYMPHOID THYMOSIN B-4” (Yale University, priority 2002, published 2009) can be followed below.

Assay [1] relates to TPA-induced irritant contact dermatitis of ear skin. The assay is described as follows: TPA irritant contact dermatitis (ICD) ear swelling assay. Format: in vivo, BALB/c and FVB mice. Particulars: for ear swelling: 6 h, unit not given; for TPA Ear Thickness (+/− SE): increase over baseline. The method, then:
Experimental groups of 8-10 female BALB/c and FVB mice, 8-10 weeks of age, were housed in temperature controlled rooms and given food and water ad libitum. Observations and measurements were made by an investigator blinded to the experimental group.
After measuring the baseline ear thickness, naïve mice were injected intraperitoneally (IP) with either 100 μl of PBS, or 100 μl of 3.50×10^−5 M peptide solution (oxidized mTβ4 (“mTβ4-so”), or oxidized mLTβ4 (“mLTβ4-so”) [n=10 per group]). 30 minutes later, mice were injected intradermally with 40 μl of either PBS or 8.75×10^−5 M solution of the appropriate peptide in both ears. One minute later, 40 nmol TPA (in 10 μl acetone) was applied to the anterior side of each ear. 6 h. and 24 h. after the topical application of TPA, the ears were re-measured, and the increases in ear thickness between baseline and 6 h. and between baseline and 24 h. calculated. For each mouse, increases in right and left ear thickness were averaged.
Statistics. Groups were compared for differences in the meaning using a one-tailed Student's t test; p<0.05 was considered statistically significant.

Assay [2] deals with DNFB-induced allergic contact dermatitis of ear skin. The assay is described as follows: DNFB allergic contact dermatitis (ACD) ear swelling assay. To be noted: for ear thickness: unit not given. Format: in vivo, FVB mice. The procedure:
Experimental groups of 8-10 female FVB mice, 8-10 weeks of age, were housed in temperature controlled rooms and given food and water ad libitum. Observations and measurements were made by an investigator blinded to the experimental group. Mice were sensitized on day 0 by epicutaneous application to razor-shaved abdominal skin of 25 μl of 0.5% DNFB in a mixture of acetone:olive oil (4:1). Before the challenge with DNFB, mice were injected (i) intraperitoneally with 100 μl of 3.50×10^−5 M thymosin peptide solution (30 minutes before DNFB) and (ii) intradermally with 40 μl of 8.75×10^−5 M peptide solution in both ears (1 min prior to DNFB challenge). On day 5, after measuring baseline ear thickness with an engineer's micrometer, mice were challenged by applying 10 μl of 0.2% DNFB in acetone:olive oil to each side of each ear. Ears were re-measured 6 h., 24 h., and 48 h. after challenge, and data expressed as the response above baseline (i.e., ear thickness 24 h. after challenge minus ear thickness immediately prior to challenge)±1 standard error of the mean (S.E.). For each mouse, increases in right and left ear thickness were averaged. The experiment was repeated twice. Statistics. Groups were compared for differences in the meaning using a one-tailed Student's t test; p<0.05 was considered statistically significant.

The subject of assay [3] is human umbilical vein endothelial cells (HUVEC). Nature of the assay: Endothelial scratch wound assay. Particulars: for % Closure (+/− SE %): 2.0×10^-7 M peptide, ECGS 200 μg. Format: cell-based. From the text: The endothelial “scratch wound assay” was utilised to test the effects of mUTβ4 and mLTβ4 on the migration of endothelial cells in vitro, as described in […] et al. (1997) Thymosin beta 4 accelerates wound healing. J Invest Dermatol. 1999 September; 113(3):364-8 and Young et al., (1999) Thymosin b 4 sulfoxide is an anti-inflammatory agent generated by monocytes in the presence of glucocorticoids. Nature Medicine. 5:1424-1427. HUVECs were obtained from the Endothelial Cell Culture Core Laboratory of the Yale Skin Diseases Research Core Center (Dr. M. Kluger). Passage 3 was used, and plated at a density of 9.5×10^4 cells per well. Cells were grown to 90% confluence in 24 well plates (Corning/Costar), in M-199 media supplemented with 20% FBS, antibiotics, and endothelial cell growth supplement (ECGS). A scratch was made along the diameter of each well with a sterile blue 1 ml pipette tip (Falcon). Cells were then rinsed in MEM buffer. Thymosin peptide was added to the cells in media lacking ECGS but containing 10 mM thymidine to inhibit cell proliferation. In the experimental groups, HUVECs were given 2.0×10^-7 M peptide solution of mUTb4, or in LTb4. Control groups consisted of saline (negative control) and 200 mg of ECGS (positive control). The plates were incubated at 37° C., fixed in 2% paraformaldehyde, and stained with crystal violet at time points 9 h. and 24 h. The scratch width was measured using a microscope with a 4× objective lens connected to a digital camera and then analyzed using Scion Image 1.62 software. The percent closure of the 9 h. and 24 h. measurements was calculated by dividing by the original wound width at time zero in square pixels. For each group, the mean percent closure was calculated, based on 4 images per well, 4 wells per group.

In assay [4] the test system is λ-carrageenan induced neutrophil mediated inflammation of the footpad. The assay is described as follows: λ-carrageenan-induced footpad inflammation (footpad swelling). The format is in vivo, BALB/c mice. To be noted: for Footpad Thickness (+/− SE): oxidised peptide. The method, then:
Experimental groups of 8-10 female BALB/c mice, 8-10 weeks of age, were housed in temperature controlled rooms and given food and water ad libitum. Observations and measurements were made by an investigator blinded to the experimental group. λ-Carrageenan injection. After measuring the baseline thickness of the hind footpads with a spring-loaded engineer's micrometer, mice were injected subcutaneously in both hind paws with 340 μg of λ-carrageenan in 40 μl. 6 h., 24 h., and 48 h. after the injection of λ-carrageenan, footpads were re-measured and swelling calculated by subtracting the baseline from the experimental measurements. For each mouse, increases in right and left footpad thickness were averaged. Thymosin peptides were injected as previously described [reference 8]: (i) intraperitoneally with 100 μl of 3.50×10^−5 M peptide solution, 30 minutes before footpad injection; (ii) intradermally into the footpad with 40 μl of 8.75×10^−5 M peptide solution and λ-carrageenan at time 0, and (iii) intraperitoneally with 100 μl of 3.50×10^−5 M peptide solution, 6 h. after footpad injection. For each group, the mean increase in footpad thickness was calculated, and compared to other groups using a one-tailed Student's t-test. The experiment was repeated four times. Statistics. Groups were compared for differences in the meaning using a one-tailed Student's t test; p<0.05 was considered statistically significant.

“And” between values parts separate entries of the source, which are not always exact repeats. Identical values can stand only once.

As to “N-MSDKPDMAEIEKFDKSKLKKTETQEINPL-PSIETIEQEKQAGES-C (SEQ ID NO:2) [mUTβ4]”, in assay [1], the ear swelling is listed as 24.10±1.83. Moreover, the “suppression of inflammation relative to PBS-treated controls” value in assay [1] (6 h post-application of TPA) was 21%; in assay [1] (24 h post-application of TPA), 13%. Further, the “TPA Ear Thickness (+/− SE)” value was 24.10 ± 1.83 mm and 18.00 ± 1.58 mm in assay [1] (six hours after TPA, listed as mTβ4); 19.00 ± 1.83 mm and 16.75 ± 1.79 mm in assay [1] (twenty-four hours after TPA, listed as mTβ4-so). In addition, in assay [2] (72 h), the “suppression of ACD ear swelling response relative to PBS” value is 29%. The “DNFB Ear Thickness (+/− SE)” value in assay [2] (Methionated Thymosin Experiment, forty-eight hours after challenge, listed as mTβ4-so) is 18.39 ± 1.67 mm and 15.11 ± 0.37 mm; in assay [2] (Methionated Thymosin Experiment, six hours after challenge, listed as mTβ4-so), 5.18 ± 0.78 mm and 4.39 ± 1.08 mm; in assay [2] (Methionated Thymosin Experiment, twenty-four hours after challenge, listed as mTβ4-so), 20.25 ± 1.54 mm and 16.75 ± 0.48 mm. The “% Closure (+/− SE %)” value in assay [3] (nine hours, listed as mTβ4) is 24% and 24.0 ± 1.1%; in assay [3] (twenty-four hours, listed as mTβ4), 21% and 21.0 ± 1.5%; in assay [3] (twenty-four hours, listed as mTβ4-so) it was 21.0±1.5%. Moreover, the “suppression of footpad inflammation relative to PBS” value in assay [4] (6 h) is given as 29%; in assay [4] (24 h) it was 45%; in assay [4] (48 h) it was 38%. The “Footpad Thickness (+/− SE)” value in assay [4] (Methionated Thymosin Experiment (B), forty-eight hours after λ-carrageenan, listed as mTβ4-so) is 0.51 ± 0.02 mm and 0.55 ± 0.03 mm; in assay [4] (Methionated Thymosin Experiment (B), six hours after λ-carrageenan, listed as mTβ4-so), 0.36 ± 0.06 mm and 0.51 ± 0.05 mm; in assay [4] (Methionated Thymosin Experiment (B), twenty-four hours after λ-carrageenan, listed as mTβ4-so), 0.38 ± 0.01 mm and 0.28 ± 0.04 mm.

Substance “N-MLLPATMSDKPDMAEIEIFDKSKILITE-TQEKNPLPSKETIEQEKQAGES-C (SEQ ID NO:9) (MLLPATMSDKPDMAEIEKFDKSKLKKTETQEKNPLPSKETIEQEKQAGES; listed as Homo sapiens) [mLTβ4, N-terminal methionated lymphoid thymosin-β4, chemically synthesised]” gave an ear swelling in assay [1] of 18.00±1.58. The “suppression of inflammation relative to PBS-treated controls” value in assay [1] (6 h post-application of TPA) came to 41%; in assay [1] (24 h post-application of TPA) it was 24%. For the same substance, the “suppression of TPA-induced ear swelling (FIG. 3)” value in assay [1] (vs PBS at 6 h and 24 h, vs mUTβ4 at 6 h) is listed as “significantly more than PBS”. The “suppression of ACD ear swelling response relative to PBS” value is reported as 37% in assay [2] (6 h), 27% in assay [2] (24 h) and 42% in assay [2] (72 h). For the same substance, in assay [2] (24 h and 72 h), the “ear swelling response relative to mice that received PBS or mUTβ4 (FIG. 4B)” value is reported as “significant reduction in ear swelling response”. Besides, the “% Closure (+/− SE %)” value in assay [3] (nine hours) was determined as 27.2 ± 1.6%; in assay [3] (nine hours, listed as mLβ), 27.2%; in assay [3] (twenty-four hours), 37.3 ± 4.4%; in assay [3] (twenty-four hours, listed as mLβ), 37.3%. The “more closure than mTβ4-so” value in assay [3] (twenty four hours) was 15.3%. For the same substance, in assay [3] (vs PBS at 9 h and 24 h, vs mUTβ4 at 24 h), the “effect on migration of HUVEC to close an artificial wound (FIG. 5)” value is “significantly greater than PBS”. In addition, the “suppression of footpad inflammation relative to PBS” value in assay [4] (6 h) came to 50%; in assay [4] (24 h), 59%; in assay [4] (48 h), 34%. The “footpad swelling compared with mice receiving PBS or mUTβ4 (FIG. 2B)” value in assay [4] (6 h and 24 h) is on record as “significantly reduced footpad swelling”.

For the substance “N-LLPATMSDKPDMAEIEKFDKSKLKKTE-TQEKNPLPSKETIEQEKQAGES-C (SEQ ID NO:8) (LLPATMSDKPDMAEIEKFDKSKLKKTETQEKNPLPSKETIEQEKQAGES; listed as Homo sapiens) [LTβ4, lymphoid thymosin-β4 polypeptide, un-methionated form, chemically synthesised]”, the “suppression of ACD ear swelling response relative to PBS” value in assay [2] (6 h) turned out to be 17%; in assay [2] (24 h), 21%; in assay [2] (72 h) it was 24%. Further, the “ear swelling response compared to mice receiving PBS or UTβ4 (FIG. 4A)” value in assay [2] (6 h, 24 h and 72 h after challenge) was “significant reduction in ear swelling response”. The “DNFB Ear Thickness (+/− SE)” value is 15.45 ± 0.91 .01 mm in assay [2] (Un-Methionated Thymosin Experiment, forty-eight hours after challenge); 7.83 ± 0.61 .01 mm in assay [2] (Un-Methionated Thymosin Experiment, six hours after challenge); 18.98 ± 0.74 .01 mm in assay [2] (Un-Methionated Thymosin Experiment, twenty-four hours after challenge). The figures for the “thinner ears than uTβ4-so treated mice” value in assay [2] (seventy-two hours), in assay [2] (six hours) and in assay [2] (twenty-four hours) were 22%, 21% and 16%, respectively. Besides, the ear thickness came out at 15.45±0.91 in assay [2] (seventy-two hours), 7.83±0.61 in assay [2] (six hours) and 18.98±0.74 in assay [2] (twenty-four hours). Also, the figures for the “suppression of footpad inflammation relative to PBS” value in assay [4] (6 h), in assay [4] (24 h) and in assay [4] (48 h) were 21%, 58% and 42%, respectively. In addition, the “footpad swelling compared with mice receiving PBS or UTβ4 (FIG. 2A)” value in assay [4] (24 h) is “significantly reduced footpad swelling”. The footpad thickness in assay [4] (24 h, unit not given) is listed as 0.22±0.03. Further, the Footpad Thickness (+/− SE) in assay [4] (Un-Methionated Thymosin Experiment (A), forty-eight hours after λ-carrageenan) was found to be 0.34 ± 0.04 mm; in assay [4] (Un-Methionated Thymosin Experiment (A), six hours after λ-carrageenan, increase over baseline), 0.47 ± 0.04 mm; in assay [4] (Un-Methionated Thymosin Experiment (A), twenty-four hours after λ-carrageenan), 0.22 ± 0.03 mm.
